Measurements as given in article PMC7979765, “trans-Translation inhibitors bind to a novel site on the ribosome and clear Neisseria gonorrhoeae in vivo” (Nature Communications, 2021).
Several values for one entry are separate records, joined by “and”; a condition that tells them apart may be missing. Identical values can stand only once. Like-named read-outs stand apart in the source and are kept apart here.

Key:
[1] = Caco-2 permeability; type: in vitro ADME, human; settings: human
Experimental: (§1) To evaluate the potential for oral bioavailability, the ability of prioritized compounds to permeate a monolayer of Caco-2 (ATCC HTB-37) intestinal epithelial cells was determined as described. Caco-2 permeability values (Papp) > 1 × 10^−6 cm/sec are predictive of oral bioavailability.

[2] = system: Caco-2 cells; test: Caco-2 permeability; type: in vitro ADME, human
Experimental: as §1

[3] = Mitochondrial toxicity assay, glucose vs galactose; type: cell-based; settings: human, HepG2; for viability at 24 h, 100 µM: Conc. (μM) 1.00E-04; for viability at 24 h, 3 µM: Conc. (μM) 3.00E-06
Experimental: (§2) Mitochondrial toxicity assay — HepG2 cells (ATCC) were seeded and cultured in media containing either glucose or galactose overnight. Test compounds were added at 8 concentrations ([…] from 100 µM to 30 nM) and incubated with the cells for 24 h. Cell viability was measured by the alamarBlue method. The data in Supplementary Table 7 are inconsistent with MBX-4132 disrupting mitochondrial metabolic processes. Assays were performed at Eurofins Cerep Panlabs.

[4] = system: HepG2 cells; test: Mitochondrial toxicity assay, glucose vs galactose; type: cell-based; settings: for % viability: HepG2, replicates
Experimental: as §2

[5] = molecular target: T1, Glucocorticoid (Homo sapiens, UniProt P04150); test: Receptor Profiling 232030; type: binding
T1 construct: purchased Eurofins Discovery Services (Panlabs safety panel)
Experimental: (§3) Several in vitro selectivity assays were performed at Eurofins Discovery Services using established methods and controls that behaved as expected (Supplementary Tables 5 and 6). […] For receptor panel profiling, MBX-4132 was evaluated at 10 μM and activity of >50% (agonist or antagonist; note that negative % inhibition indicates agonism) was scored as active.

[6] = molecular target: T2, CYP2C9 (Homo sapiens, UniProt P11712); test: Cyp inhibition assay 4878; type: in vitro ADME; settings: catalog reference 4878
T2 construct: Eurofins Discovery Services (contract assay) 4878
Experimental: as §3

[7] = molecular target: T3, Histamine H2 (Homo sapiens, UniProt P25021); test: Receptor Profiling 239710; type: binding
T3 construct: purchased Eurofins Discovery Services (Panlabs safety panel)
Experimental: as §3

[8] = Serum protein binding, dog; type: in vitro ADME
Experimental: Serum protein binding was determined using an equilibrium dialysis method as described. The amount of compound in each chamber (buffer and serum) was measured using methods for reverse-phase liquid chromatography/mass spectroscopy methods that were customized for each compound.

[9] = molecular target: T4, Cholecystokinin CKK1 (CCKA) (Homo sapiens, UniProt P32238); test: Receptor Profiling 218030; type: binding
T4 construct: purchased Eurofins Discovery Services (Panlabs safety panel)
Experimental: as §3

[10] = system: Potassium Channel [KA]; test: Receptor Profiling 265510; type: binding, rat; settings: 10 μM
Experimental: as §3

[11] = molecular target: T5, CYP2C8 (Homo sapiens, UniProt P10632); test: Cyp inhibition assay 4879; type: in vitro ADME; settings: catalog reference 4879, read-out: pIC50 (µM) reported (converted)
T5 construct: Eurofins Discovery Services (contract assay) 4879
Experimental: as §3

[12] = Murine tolerability studies; type: in vivo; settings: for adverse effects (in words): mice
Experimental: Single dose tolerability studies — Female CD-1 mice were fasted for 2 h prior, and 4 h after dosing. […] 4–6 weeks-old CD-1 female mice were received from Charles River laboratories and acclimated for at least 5 days prior to the start of the study. Apart from specific instances of fasting described in the experimental, the mice had free access to food and water. The animals were housed 3–6 per cage in a temperature and humidity-controlled room with a 12 h light cycle. All procedures described are in compliance with the Animal Welfare Act, the Guide for the Care and Use of Laboratory Animals, and the Office of Laboratory Animal Welfare. These studies conform to the NeoSome IACUC policies and Operational Guidelines as approved by the IACUC membership, NeoSome Safety Officers, or Attending Veterinarian. All testing was performed at Neosome LLC.
Multidose tolerability studies — In preparation for this study, an abbreviated version of the above murine PK study using the same formulation (A) examined fasted mice vs. fed mice was performed, with plasma samples taken at 1 and 4 h post dosing and analyses as described in the PK section.
Female CD-1 mice were given free access to food and water. […] Any abnormal observations (behavior, agility, weight, coat condition and appearance, color of urine, quality of feces, etc.) were noted.

[13] = system: N. gonorrhoeae strain H041; test: In vivo efficacy in the gonorrhea mouse model; settings: for mouse cfu: individual mice, 2.00E+01 = no CFU/mL recovered, limit of detection
[14] = molecular target: T6, Adrenergic β2 (Homo sapiens, UniProt P07550); test: Receptor Profiling 204110; type: binding
T6 construct: purchased Eurofins Discovery Services (Panlabs safety panel)
Experimental: as §3

[15] = molecular target: T7, Cholinesterase, Acetyl, ACES (Homo sapiens, UniProt P22303); test: Receptor Profiling 104010; type: biochemical
T7 construct: Eurofins Discovery Services (contract assay) 104010
Experimental: as §3

[16] = molecular target: T8, Opiate Mu (OP3, MOP) (Homo sapiens, UniProt P35372); test: Receptor Profiling 260410; type: binding
T8 construct: purchased Eurofins Discovery Services (Panlabs safety panel)
Experimental: as §3

[17] = HepG2 cells, Galactcose, read-out: Mean % viability
[18] = HepG2 cells, Galactcose, replicates, read-out: % viability
[19] = HepG2 cells, Glucose, read-out: Mean % viability
[20] = HepG2 cells, Glucose, replicates, read-out: % viability

T6 sequence (P07550 whole entry): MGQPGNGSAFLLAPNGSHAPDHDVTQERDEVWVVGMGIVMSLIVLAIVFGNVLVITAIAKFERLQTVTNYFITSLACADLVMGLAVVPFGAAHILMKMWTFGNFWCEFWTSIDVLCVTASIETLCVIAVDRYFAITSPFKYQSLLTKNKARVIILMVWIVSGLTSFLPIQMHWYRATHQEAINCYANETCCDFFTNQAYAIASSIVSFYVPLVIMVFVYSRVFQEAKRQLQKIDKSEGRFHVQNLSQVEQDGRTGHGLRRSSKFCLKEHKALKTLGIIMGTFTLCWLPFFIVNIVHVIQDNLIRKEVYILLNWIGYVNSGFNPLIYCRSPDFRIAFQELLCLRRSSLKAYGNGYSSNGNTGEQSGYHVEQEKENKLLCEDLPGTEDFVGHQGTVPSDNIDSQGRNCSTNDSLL
T7 sequence (P22303 32-614): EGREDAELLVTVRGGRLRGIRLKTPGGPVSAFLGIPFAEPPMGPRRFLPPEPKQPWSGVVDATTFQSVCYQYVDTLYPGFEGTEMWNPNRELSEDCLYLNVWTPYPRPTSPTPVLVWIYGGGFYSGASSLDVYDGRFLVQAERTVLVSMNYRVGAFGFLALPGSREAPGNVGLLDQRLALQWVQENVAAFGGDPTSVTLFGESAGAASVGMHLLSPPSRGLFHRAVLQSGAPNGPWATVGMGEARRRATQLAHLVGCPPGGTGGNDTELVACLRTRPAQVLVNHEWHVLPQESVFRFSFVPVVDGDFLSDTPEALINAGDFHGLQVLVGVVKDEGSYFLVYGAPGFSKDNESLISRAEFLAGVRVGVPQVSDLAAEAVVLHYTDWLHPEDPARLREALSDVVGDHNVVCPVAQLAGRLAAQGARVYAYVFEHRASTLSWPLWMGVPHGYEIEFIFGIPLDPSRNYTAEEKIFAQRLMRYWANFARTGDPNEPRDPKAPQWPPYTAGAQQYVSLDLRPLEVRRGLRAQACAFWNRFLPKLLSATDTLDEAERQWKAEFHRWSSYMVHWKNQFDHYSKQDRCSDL
T4 sequence (P32238 whole entry): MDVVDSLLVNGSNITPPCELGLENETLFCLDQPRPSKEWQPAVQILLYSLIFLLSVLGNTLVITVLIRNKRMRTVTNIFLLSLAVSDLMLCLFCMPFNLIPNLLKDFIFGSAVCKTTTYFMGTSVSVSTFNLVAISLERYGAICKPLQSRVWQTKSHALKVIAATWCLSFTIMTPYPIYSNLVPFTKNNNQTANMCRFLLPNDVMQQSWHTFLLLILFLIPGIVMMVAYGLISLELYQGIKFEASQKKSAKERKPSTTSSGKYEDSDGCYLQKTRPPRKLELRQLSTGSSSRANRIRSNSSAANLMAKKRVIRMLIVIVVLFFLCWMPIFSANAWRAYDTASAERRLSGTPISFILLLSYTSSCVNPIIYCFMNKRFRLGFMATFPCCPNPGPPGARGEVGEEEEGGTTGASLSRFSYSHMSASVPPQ
T5 sequence (P10632 whole entry): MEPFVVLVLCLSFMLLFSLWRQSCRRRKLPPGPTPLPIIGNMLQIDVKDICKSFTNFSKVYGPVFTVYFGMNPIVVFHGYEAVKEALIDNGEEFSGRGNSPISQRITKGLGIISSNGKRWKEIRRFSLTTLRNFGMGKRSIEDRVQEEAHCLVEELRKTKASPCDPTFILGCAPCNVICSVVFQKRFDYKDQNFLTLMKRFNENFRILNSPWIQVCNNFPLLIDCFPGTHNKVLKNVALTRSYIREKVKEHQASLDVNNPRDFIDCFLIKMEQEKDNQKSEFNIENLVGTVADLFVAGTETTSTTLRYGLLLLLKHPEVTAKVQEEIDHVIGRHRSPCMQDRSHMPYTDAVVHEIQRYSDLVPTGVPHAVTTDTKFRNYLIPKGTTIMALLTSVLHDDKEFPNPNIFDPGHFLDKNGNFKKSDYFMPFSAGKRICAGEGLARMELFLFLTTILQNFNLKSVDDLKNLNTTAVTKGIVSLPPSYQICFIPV
T2 sequence (P11712 whole entry): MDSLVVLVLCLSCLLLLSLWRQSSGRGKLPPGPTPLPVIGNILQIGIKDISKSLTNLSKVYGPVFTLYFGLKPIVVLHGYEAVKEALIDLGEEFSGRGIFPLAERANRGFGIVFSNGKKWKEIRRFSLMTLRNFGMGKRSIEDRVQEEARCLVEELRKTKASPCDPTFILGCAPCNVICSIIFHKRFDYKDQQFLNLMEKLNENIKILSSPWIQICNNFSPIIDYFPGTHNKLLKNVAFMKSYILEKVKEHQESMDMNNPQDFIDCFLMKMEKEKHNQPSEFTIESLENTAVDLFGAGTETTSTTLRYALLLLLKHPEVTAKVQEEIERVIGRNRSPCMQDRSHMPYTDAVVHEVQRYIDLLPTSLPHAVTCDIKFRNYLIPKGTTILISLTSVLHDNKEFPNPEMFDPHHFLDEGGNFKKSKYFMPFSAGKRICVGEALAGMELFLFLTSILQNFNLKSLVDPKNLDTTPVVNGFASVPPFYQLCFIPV
T3 sequence (P25021 whole entry): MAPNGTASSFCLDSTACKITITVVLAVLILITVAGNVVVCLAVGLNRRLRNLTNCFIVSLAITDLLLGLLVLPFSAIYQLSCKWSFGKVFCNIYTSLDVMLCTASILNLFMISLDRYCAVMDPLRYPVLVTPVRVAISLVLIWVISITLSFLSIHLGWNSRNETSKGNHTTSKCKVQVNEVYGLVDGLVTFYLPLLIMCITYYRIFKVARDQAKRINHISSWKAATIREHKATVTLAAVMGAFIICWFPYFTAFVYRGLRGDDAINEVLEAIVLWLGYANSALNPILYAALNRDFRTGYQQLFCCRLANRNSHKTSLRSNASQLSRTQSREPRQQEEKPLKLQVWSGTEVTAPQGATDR
T8 sequence (P35372 whole entry): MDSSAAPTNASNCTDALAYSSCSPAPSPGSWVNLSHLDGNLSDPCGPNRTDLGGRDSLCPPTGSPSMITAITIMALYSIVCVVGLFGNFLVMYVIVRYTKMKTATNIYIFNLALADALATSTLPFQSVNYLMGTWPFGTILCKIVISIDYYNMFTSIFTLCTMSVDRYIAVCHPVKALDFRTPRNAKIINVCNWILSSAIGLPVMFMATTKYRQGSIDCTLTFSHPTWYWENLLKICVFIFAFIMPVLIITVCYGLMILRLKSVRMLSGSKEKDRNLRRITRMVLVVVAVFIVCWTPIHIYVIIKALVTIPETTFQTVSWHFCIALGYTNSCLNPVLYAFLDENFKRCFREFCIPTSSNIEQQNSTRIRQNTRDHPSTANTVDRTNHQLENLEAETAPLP
T1 sequence (P04150 whole entry): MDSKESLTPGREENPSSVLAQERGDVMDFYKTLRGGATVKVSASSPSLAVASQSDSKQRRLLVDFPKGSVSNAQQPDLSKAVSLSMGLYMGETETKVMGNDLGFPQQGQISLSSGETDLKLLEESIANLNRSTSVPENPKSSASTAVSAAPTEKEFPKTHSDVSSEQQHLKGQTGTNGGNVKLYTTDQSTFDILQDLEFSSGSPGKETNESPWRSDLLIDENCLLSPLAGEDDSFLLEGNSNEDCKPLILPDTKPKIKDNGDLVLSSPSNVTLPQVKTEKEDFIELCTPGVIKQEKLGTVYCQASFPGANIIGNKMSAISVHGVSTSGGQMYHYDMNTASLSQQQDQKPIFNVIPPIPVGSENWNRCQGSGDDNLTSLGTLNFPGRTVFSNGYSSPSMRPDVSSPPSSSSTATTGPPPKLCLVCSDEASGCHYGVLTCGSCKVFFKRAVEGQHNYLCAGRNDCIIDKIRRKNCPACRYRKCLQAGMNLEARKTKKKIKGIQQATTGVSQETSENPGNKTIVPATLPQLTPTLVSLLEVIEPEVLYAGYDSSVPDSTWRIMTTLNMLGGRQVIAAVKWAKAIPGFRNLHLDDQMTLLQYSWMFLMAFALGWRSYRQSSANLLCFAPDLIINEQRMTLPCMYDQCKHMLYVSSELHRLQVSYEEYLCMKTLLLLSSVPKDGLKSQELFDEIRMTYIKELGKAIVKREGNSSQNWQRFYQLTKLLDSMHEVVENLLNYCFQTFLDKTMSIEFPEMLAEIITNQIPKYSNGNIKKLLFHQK

O=C(Nc1nnc(-c2ccc(F)cc2)o1)N1CCc2ccccc2C1 [MBX-4132]
Papp A→B ([1]; Caco-2, A to B, read-out: Caco-2 Papp (A to B)): 11.1 ×10⁻⁶ cm/s | Papp A→B ([1]; Caco-2, A→B, Average Value, Eurofins, read-out: Caco-2 A→B): 11.1 ×10⁻⁶ cm/s | Papp A→B ([1]; Caco-2, A→B, Replicate 1/2, Eurofins, read-out: Caco-2 A→B): 12.4 ×10⁻⁶ cm/s | Papp A→B ([1]; Caco-2, A→B, Reported value, Eurofins, read-out: Caco-2 A→B): 11.1 ×10⁻⁶ cm/s | Papp B→A ([1]; Caco-2, B to A, read-out: Caco-2 Papp B to A): 7.3 ×10⁻⁶ cm/s | Papp B→A ([1]; Caco-2, B→A, Average Value, Eurofins, read-out: Caco-2 B→A): 7.3 ×10⁻⁶ cm/s | Papp B→A ([1]; Caco-2, B→A, Replicate 1/2, Eurofins, read-out: Caco-2 B→A): 6.33 ×10⁻⁶ cm/s | Papp B→A ([1]; Caco-2, B→A, Reported value, Eurofins, read-out: Caco-2 B→A): 7.3 ×10⁻⁶ cm/s | Caco-2 Papp (A to B) ([2]; A to B): 11 x 10^-6 cms^-1 | Caco-2 (Papp; x 10-6 cms-1) A→B ([2]; A→B, Replicate 1/2, Eurofins): 9.9 x 10-6 cms-1 | Caco-2 (Papp; x 10-6 cms-1) B→A ([2]; B→A, Replicate 1/2, Eurofins): 8.19 x 10-6 cms-1 | viability at 24 h, 1e-05 μM ([3]; Glucose, Conc. (μM) 1.00E-05, replicates): 108% | viability at 24 h, 100 µM [3, 17]: 64% | viability at 24 h, 100 µM [3, 18]: 65.3% | viability at 24 h, 10 µM ([3]; HepG2 cells, Galactcose, Conc. (μM) 1.00E-05): 95.4% | viability at 24 h, 3 µM [3, 17]: 94.1% | viability at 24 h, 3 µM [3, 18]: 93.9% | viability at 24 h, 30 µM ([3]; HepG2 cells, Galactose, Conc. (μM) 3.00E-05, 24 h): 96.8% | viability at 24 h, 100 µM [3, 19]: 81.9% | viability at 24 h, 100 µM [3, 20]: 78.3% | viability at 24 h, 10 µM ([3]; HepG2 cells, Glucose, Conc. (μM) 1.00E-05): 108% | viability at 24 h, 3 µM [3, 19]: 110% | viability at 24 h, 3 µM [3, 20]: 116% | % viability ([4]; Galactcose, Conc. (μM) 1.00E-04): 62.7% | % viability ([4]; Galactcose, Conc. (μM) 3.00E-05): 99.1% | % viability ([4]; Galactcose, Conc. (μM) 3.00E-06): 94.2% | % viability ([4]; Glucose, Conc. (μM) 1.00E-04): 85.6% | % viability ([4]; Glucose, Conc. (μM) 1.00E-05): 107.5% | % viability ([4]; Glucose, Conc. (μM) 3.00E-05): 106.5% | % viability ([4]; Glucose, Conc. (μM) 3.00E-06): 103.0% | differential toxicity glucose vs galactose (in words) ([4]; HepG2 cells): did not induce differential toxicity | inhibition at 10 µM [5]: -2% | pIC50 (µM) reported [6]: No activity | inhibition at 10 µM [7]: -7% | fraction unbound ([8]; Average Value, Eurofins, read-out: Serum binding (% bound) Dog (converted)): 0.048 | fraction unbound ([8]; Replicate 1/2, Eurofins, read-out: Serum binding (% bound) Dog (converted)): 0.095 and 0.002 | fraction unbound ([8]; Reported value, Eurofins, read-out: Serum binding (% bound) Dog (converted)): 0.048 | fraction unbound ([8]; read-out: Serum Binding (% bound) Dog (converted)): 0.048 | inhibition at 10 µM [9]: 66% | % inhibition [10]: -2% | IC50 [11]: > 100 µM | abnormal observations, multidose tolerability ([12]; female CD-1 mice, 10 ml/kg of 1.0 mg/ml suspension QD or BID for 7 d, observed 10 d): No abnormal observations | abnormal observations, single dose tolerability ([12]; female CD-1 mice, oral gavage 10 ml/kg of 1.0, 2.5 or 10.0 mg/ml suspension, 24 h): No abnormal observations | adverse effects (in words) ([12]; repeat dosing 10 mg/kg BID, 7 d): no obvious adverse effects | adverse effects (in words) ([12]; single dose of 100 mg/kg): no obvious adverse effects | mouse cfu ([13]; Day 5, MBX-4132 10 MPK, 10 mg/kg): 2.00E+01 CFU/mL (14×) and 4.20E+02 CFU/mL and 2.61E+03 CFU/mL and 2.38E+03 CFU/mL and 3.50E+05 CFU/mL and 1.00E+06 CFU/mL and 2.60E+02 CFU/mL | mouse cfu ([13]; Day 6, MBX-4132 10 MPK, 10 mg/kg): 2.00E+01 CFU/mL (16×) and 1.46E+03 CFU/mL and 2.08E+04 CFU/mL and 3.12E+05 CFU/mL and 7.20E+02 CFU/mL | mouse cfu ([13]; Day 7, MBX-4132 10 MPK, 10 mg/kg): 2.00E+01 CFU/mL (18×) and 1.01E+04 CFU/mL and 1.16E+04 CFU/mL | mouse cfu ([13]; Day 8, MBX-4132 10 MPK, 10 mg/kg): 2.00E+01 CFU/mL (18×) and 2.20E+02 CFU/mL and 7.00E+02 CFU/mL | mouse cfu ([13]; Day -1, MBX-4132 10 MPK, 10 mg/kg): 2.16E+06 CFU/mL and 4.97E+06 CFU/mL and 1.86E+05 CFU/mL and 1.04E+06 CFU/mL and 6.26E+06 CFU/mL and 2.02E+05 CFU/mL and 3.50E+04 CFU/mL and 5.46E+03 CFU/mL and 1.66E+05 CFU/mL and 6.46E+05 CFU/mL and 2.23E+05 CFU/mL and 2.90E+05 CFU/mL and 2.17E+05 CFU/mL and 6.58E+03 CFU/mL and 2.34E+06 CFU/mL and 3.20E+02 CFU/mL and 3.63E+06 CFU/mL and 4.88E+05 CFU/mL and 3.45E+06 CFU/mL and 2.43E+06 CFU/mL | mice cleared per day: cleared flag ([13]; MBX-4132 10 MPK, individual mice 1-20, 1 = cleared on the day, 0 = not cleared, 10 mg/kg): 1 and 0 | Day (mice cleared per day: day on which the mouse was cleared) ([13]; MBX-4132 10 MPK, individual mice 1-20, Day 8 with flag 0 = not cleared, 10 mg/kg): 3 and 8 and 6 and 5 and 1 and 4 and 2 | mice completely cleared of infection ([13]; single oral dose 10 mg/kg, by 6 days, N. gonorrhoeae H041): 80% | inhibition at 10 µM [14]: 35% | inhibition at 10 µM [15]: 6% | inhibition at 10 µM [16]: 17%
